This note sets out measurements from PMC11290450, “Isocyanides inhibit bacterial pathogens by covalent targeting of essential metabolic enzymes” (Chemical Science, 2024).

Values after ≈ are worked out from the molar mass of the structure shown.

Data set [1] has as its target T1, glutamine–fructose-6-phosphate aminotransferase (GlmS) (Staphylococcus aureus, UniProt Q2FWA0).
T1 construct: recombinant wild-type GlmS
In words: GDH-coupled glutaminase assay (turnover reduced to about […] at […]). Particulars: read-out: % residual turnover at 100 μM. In kind it is biochemical.

The target of data set [2] is T2, cytochrome P450 2C9 (Homo sapiens, UniProt P11712).
T2 construct: gene CYP2C9
T2 sequence (P11712 whole entry): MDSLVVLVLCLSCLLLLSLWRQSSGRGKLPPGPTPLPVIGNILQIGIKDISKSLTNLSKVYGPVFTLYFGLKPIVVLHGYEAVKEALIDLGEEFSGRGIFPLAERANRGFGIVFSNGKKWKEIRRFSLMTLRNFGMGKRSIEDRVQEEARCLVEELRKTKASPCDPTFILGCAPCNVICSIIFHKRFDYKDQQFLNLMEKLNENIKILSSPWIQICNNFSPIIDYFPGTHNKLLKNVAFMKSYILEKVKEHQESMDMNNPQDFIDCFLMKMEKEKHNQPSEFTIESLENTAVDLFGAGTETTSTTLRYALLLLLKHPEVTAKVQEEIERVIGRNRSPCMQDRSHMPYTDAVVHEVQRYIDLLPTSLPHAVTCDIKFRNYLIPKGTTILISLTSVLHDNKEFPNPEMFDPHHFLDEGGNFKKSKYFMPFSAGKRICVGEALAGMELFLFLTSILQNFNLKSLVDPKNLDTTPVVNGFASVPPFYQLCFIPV
In words: CYP inhibition assay (Table S3). It is filed as biochemical.

The target in data set [3] is T3, cytochrome P450 3A4 (Homo sapiens, UniProt P08684).
T3 construct: gene CYP3A4
T3 sequence (P08684 2-503): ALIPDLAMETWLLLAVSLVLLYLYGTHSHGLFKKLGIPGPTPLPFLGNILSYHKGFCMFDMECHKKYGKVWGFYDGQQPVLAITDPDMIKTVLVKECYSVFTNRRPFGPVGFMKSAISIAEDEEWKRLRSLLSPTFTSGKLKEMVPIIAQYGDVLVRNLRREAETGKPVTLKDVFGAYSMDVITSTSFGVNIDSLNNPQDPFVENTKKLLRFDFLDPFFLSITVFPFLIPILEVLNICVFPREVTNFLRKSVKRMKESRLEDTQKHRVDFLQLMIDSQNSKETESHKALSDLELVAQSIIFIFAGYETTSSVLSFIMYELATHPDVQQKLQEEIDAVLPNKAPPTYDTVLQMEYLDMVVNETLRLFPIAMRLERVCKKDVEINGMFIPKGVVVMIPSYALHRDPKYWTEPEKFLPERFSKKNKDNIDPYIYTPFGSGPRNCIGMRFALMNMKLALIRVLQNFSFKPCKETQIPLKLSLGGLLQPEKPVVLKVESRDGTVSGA
In words: CYP inhibition assay (Table S3). In kind it is biochemical.

For data set [4], the target named is T4, cytochrome P450 1A2 (Homo sapiens, UniProt P05177).
T4 construct: gene CYP1A2
T4 sequence (P05177 2-516): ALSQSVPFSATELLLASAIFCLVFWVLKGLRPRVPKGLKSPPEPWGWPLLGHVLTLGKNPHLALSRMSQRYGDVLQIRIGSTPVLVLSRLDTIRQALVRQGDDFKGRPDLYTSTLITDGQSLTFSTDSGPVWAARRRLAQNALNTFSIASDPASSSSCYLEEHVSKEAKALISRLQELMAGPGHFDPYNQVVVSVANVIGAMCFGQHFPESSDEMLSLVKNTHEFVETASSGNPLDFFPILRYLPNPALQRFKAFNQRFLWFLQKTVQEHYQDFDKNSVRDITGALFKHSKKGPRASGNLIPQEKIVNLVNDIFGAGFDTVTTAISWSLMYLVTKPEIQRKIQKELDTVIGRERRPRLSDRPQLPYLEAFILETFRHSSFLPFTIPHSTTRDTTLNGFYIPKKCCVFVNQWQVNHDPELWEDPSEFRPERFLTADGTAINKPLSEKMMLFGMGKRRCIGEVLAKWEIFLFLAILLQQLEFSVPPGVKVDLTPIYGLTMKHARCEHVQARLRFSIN
In words: CYP inhibition assay (Table S3). In kind it is biochemical.

The target in data set [5] is T1, glutamine–fructose-6-phosphate aminotransferase (GlmS). Description: GDH-coupled glutaminase assay; intact protein MS (+[…] Da, truncated adduct); competitive gel-based IA-alkyne labeling; isoDTB-ABPP. It is filed as biochemical.
For data set [6], the target named is T5, cytochrome P450 2D6 (Homo sapiens, UniProt P10635).
T5 construct: gene CYP2D6
T5 sequence (P10635 whole entry): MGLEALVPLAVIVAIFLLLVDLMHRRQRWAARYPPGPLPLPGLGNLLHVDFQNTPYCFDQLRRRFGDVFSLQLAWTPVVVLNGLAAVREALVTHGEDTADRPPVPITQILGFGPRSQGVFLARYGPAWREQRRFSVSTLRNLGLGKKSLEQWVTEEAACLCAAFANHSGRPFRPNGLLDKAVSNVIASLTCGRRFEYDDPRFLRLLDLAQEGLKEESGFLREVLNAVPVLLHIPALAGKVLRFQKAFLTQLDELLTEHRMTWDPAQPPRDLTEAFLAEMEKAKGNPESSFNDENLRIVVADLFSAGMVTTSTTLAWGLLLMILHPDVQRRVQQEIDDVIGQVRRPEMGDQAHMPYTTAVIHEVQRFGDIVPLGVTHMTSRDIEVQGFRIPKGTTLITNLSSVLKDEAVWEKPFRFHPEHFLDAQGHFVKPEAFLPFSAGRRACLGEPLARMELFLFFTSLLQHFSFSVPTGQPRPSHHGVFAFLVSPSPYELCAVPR
Description: CYP inhibition assay (Table S3). In kind it is biochemical.

The test system of data set [7] is T6, E. coli K12.
T6 construct: K12
Description: microbe, parasite or virus in culture. Further details: broth microdilution MIC, visible growth (turbidity or pellet). Particulars: Escherichia coli, K12, 20 h. How it is done:
(§1) faecalis, E. faecium. S. epidermidis, S. pyogenes and S. pneumonia strains were cultivated in brain heart infusion medium (BHB, 7.5 g/L brain infusion, 10 g/L heart infusion, 10 g/L casein peptone, 5 g/L NaCl, 2.5 g/L Na2HPO4, 2 g/L glucose). Cell culture Cell culture media and supplements were purchased from Merck. HeLa cells were cultured in Dulbecco’s Modified Eagle Medium (DMEM, high glucose, 4.5 g/L) supplemented with 10% fetal bovine serum (FBS) and 2 mM L-glutamine at 37 °C in a 5% CO2 atmosphere. Accutase (Merck) was used for cell detachment. Minimum inhibitory concentration (MIC) The minimum inhibitory concentration (MIC) was determined by using the broth microdilution assay. 1 µL of compound stock solution in DMSO was pipetted to the wells of row 1 of a sterile flat bottom 96-well plate containing 100 µL growth medium and thoroughly mixed. Subsequently, a 1:1 serial dilution was performed in the growth medium from row 1 to row 10. […] Plates were incubated for 20 h (37 °C, 200 rpm; for Streptococcus pneumoniae DSM30104 and Streptococcus pyogenes ATCC700294: 5% CO2 atmosphere, 37 °C without shaking), and the dilution series were analyzed for microbial growth, indicated by turbidity and/or a pellet. […] MIC values were determined in technical triplicates and confirmed in two or three independent biological experiments. […]

The next data set deals with T7, S. aureus USA300 Lac.
T7 construct: USA300 LAC
In words: microbe, parasite or virus in culture. Further details: broth microdilution MIC, visible growth (turbidity or pellet). As to conditions: Staphylococcus aureus, USA300, 20 h. The protocol: as §1

In another data set the test system is T8, A. baumannii 5075.
T8 construct: AB5075
Description: microbe, parasite or virus in culture. Further details: broth microdilution MIC, visible growth (turbidity or pellet). As to conditions: Acinetobacter baumannii, 5075, 20 h. The protocol: (§2) faecalis, E. faecium. S. epidermidis, S. pyogenes and S. pneumonia strains were cultivated in brain heart infusion medium (BHB, 7.5 g/L brain infusion, 10 g/L heart infusion, 10 g/L casein peptone, 5 g/L NaCl, 2.5 g/L Na2HPO4, 2 g/L glucose). Cell culture Cell culture media and supplements were purchased from Merck. HeLa cells were cultured in Dulbecco’s Modified Eagle Medium (DMEM, high glucose, 4.5 g/L) supplemented with 10% fetal bovine serum (FBS) and 2 mM L-glutamine at 37 °C in a 5% CO2 atmosphere. Accutase (Merck) was used for cell detachment. Minimum inhibitory concentration (MIC) The minimum inhibitory concentration (MIC) was determined by using the broth microdilution assay. 1 µL of compound stock solution in DMSO was pipetted to the wells of row 1 of a sterile flat bottom 96-well plate containing 100 µL growth medium and thoroughly mixed. Subsequently, a 1:1 serial dilution was performed in the growth medium from row 1 to row 10. 50 µL of bacterial suspension (1:10,000 dilution of an overnight culture in the respective growth medium) was added to each well containing compound and the growth control (row 11). A sterile control containing only medium was included (row 12). The final volume was 100 µL per well. Plates were incubated for 20 h (37 °C, 200 rpm; […] ATCC700294: 5% CO2 atmosphere, 37 °C without shaking), and the dilution series were analyzed for microbial growth, indicated by turbidity and/or a pellet. The lowest concentration in the dilution series at which no growth of bacteria could be observed was defined as the MIC of the compound. MIC values were determined in technical triplicates and confirmed in two or three independent biological experiments. The [compound left out] library was screened once in technical triplicates. The MIC is reported as mean of technical triplicates. If the MIC varied between biological replicates, concentration ranges are indicated.

Another data set deals with T9, A. baumannii ATCC 19606.
T9 construct: ATCC 19606
In words: microbe, parasite or virus in culture. Particulars: Acinetobacter baumannii, ATCC19606, 20 h. Further details: broth microdilution MIC, visible growth (turbidity or pellet). The protocol:
as §2

For the next data set, the system named is T10, B. subtilis 168.
T10 construct: 168
In words: microbe, parasite or virus in culture. Further details: broth microdilution MIC, visible growth (turbidity or pellet). As to conditions: Bacillus subtilis, 168, 20 h. The protocol:
as §2

Data set [8] has as its system T6, E. coli K12. In words: microbe, parasite or virus in culture. Particulars: Escherichia coli, K12, 20 h. Further details: broth microdilution MIC, visible growth (turbidity or pellet). How it is done: as §2
This is another data set of the same source.

A further data set deals with T11, E. coli UTI89.
T11 construct: UTI89
In words: microbe, parasite or virus in culture. Further details: broth microdilution MIC, visible growth (turbidity or pellet). Particulars: Escherichia coli, UTI89, 20 h. How it is done:
as §2

Another data set concerns T12, E. faecalis V583.
T12 construct: V583
In words: microbe, parasite or virus in culture. As to conditions: Enterococcus faecalis, V583, 20 h. Further details: broth microdilution MIC, visible growth (turbidity or pellet). The protocol: as §2

In a further data set the test system is T13, E. faecium DSM17050.
T13 construct: DSM 17050
In words: microbe, parasite or virus in culture. Further details: broth microdilution MIC, visible growth (turbidity or pellet). As to conditions: Enterococcus faecium, DSM17050, 20 h. How it is done: as §2

The test system of another data set is T14, K. pneumoniae DSM 30104.
T14 construct: DSM 30104
Description: microbe, parasite or virus in culture. Further details: broth microdilution MIC, visible growth (turbidity or pellet). Particulars: Klebsiella pneumoniae, DSM30104, 20 h. The protocol: as §2

The test system of another data set is T15, L. monocytogenes EGD-e.
T15 construct: EGD-e
Description: microbe, parasite or virus in culture. Further details: broth microdilution MIC, visible growth (turbidity or pellet). Particulars: Listeria monocytogenes, 20 h. The protocol:
as §2

Another data set concerns T16, P. aeruginosa PAO1.
T16 construct: PAO1
Description: microbe, parasite or virus in culture. Particulars: Pseudomonas aeruginosa, PAO1, 20 h. Further details: broth microdilution MIC, visible growth (turbidity or pellet). The protocol:
as §2

The test system of the next data set is T17, S. aureus NCTC 8325.
T17 construct: NCTC 8325
In words: microbe, parasite or virus in culture. Further details: broth microdilution MIC, visible growth (turbidity or pellet). Particulars: Staphylococcus aureus, NCTC8325, 20 h. The protocol: as §2

A further data set has as its system T18, S. aureus USA300 LAC J2.
T18 construct: USA300 LAC JE2
In words: microbe, parasite or virus in culture. Further details: broth microdilution MIC, visible growth (turbidity or pellet). Particulars: Staphylococcus aureus, USA300, 20 h. The protocol:
as §2

The next data set has as its system T19, S. epidermidis RP62 A.
T19 construct: RP62A
Description: microbe, parasite or virus in culture. Further details: broth microdilution MIC, visible growth (turbidity or pellet). As to conditions: Staphylococcus epidermidis, RP62A, 20 h. The protocol: as §2

A further data set relates to T20, S. pneumoniae DSM 20567.
T20 construct: DSM 20567
In words: microbe, parasite or virus in culture. Particulars: Streptococcus pneumoniae, DSM20567, 20 h. Further details: broth microdilution MIC, visible growth (turbidity or pellet). The protocol: as §2

The next data set relates to T21, S. pyogenes ATCC 700294.
T21 construct: ATCC 700294
Description: microbe, parasite or virus in culture. As to conditions: Streptococcus pyogenes, ATCC700294, 20 h. Further details: broth microdilution MIC, visible growth (turbidity or pellet). The protocol: as §2

In another data set the test system is T22, S. typhimurium LT2.
T22 construct: LT2
In words: microbe, parasite or virus in culture. Further details: broth microdilution MIC, visible growth (turbidity or pellet). Particulars: Salmonella enterica, TYPHIMURIUM, 20 h. How it is done: as §2

For data set [9], the target named is T4, cytochrome P450 1A2. Description: biochemical. Further details: CYP inhibition in human liver microsomes, conversion of isoform-specific substrates. Particulars: substrate phenacetin; liver microsomes. How it is done:
(§3) To cover a broad range of structurally diverse compounds, we gathered commercially available primary, secondary, tertiary, vinyl and aromatic [compound left out] for antibacterial testing (Table S1 ^†). […] The minimum inhibitory concentration (MIC) of forty-two compounds was determined in Gram-positive Staphylococcus aureus and Gram-negative Escherichia coli cells up to 50 μM. […] The compound was tested against a panel of Gram-positive and Gram-negative pathogens. Although no antibiotic effects against Gram-negative strains were observed, Bacillus subtilis, Listeria monocytogenes, Staphylococcus epidermidis, and Streptococcus pneumoniae could be inhibited at low micromolar concentrations of I16 (Table S2 ^†). […] This was further corroborated by evaluation I16 in four different human cytochrome P450 enzymes (CYPs).
A general note: Liver microsomes are vesicles of endoplasmic reticulum, rich in cytochrome P450 enzymes.

Data set [10] concerns the target T2, cytochrome P450 2C9. Description: biochemical. Further details: CYP inhibition in human liver microsomes, conversion of isoform-specific substrates. As to conditions: substrate diclofenac; liver microsomes. The protocol:
as §3

The target in data set [11] is T5, cytochrome P450 2D6. In words: biochemical. Particulars: substrate dextromethorphan; liver microsomes. Further details: CYP inhibition in human liver microsomes, conversion of isoform-specific substrates. The protocol:
as §3

The target in data set [12] is T3, cytochrome P450 3A4. In words: biochemical. Further details: CYP inhibition in human liver microsomes, conversion of isoform-specific substrates. Particulars: substrate midazolam; liver microsomes. The protocol:
as §3

T1 sequence (Q2FWA0 entry or part of it): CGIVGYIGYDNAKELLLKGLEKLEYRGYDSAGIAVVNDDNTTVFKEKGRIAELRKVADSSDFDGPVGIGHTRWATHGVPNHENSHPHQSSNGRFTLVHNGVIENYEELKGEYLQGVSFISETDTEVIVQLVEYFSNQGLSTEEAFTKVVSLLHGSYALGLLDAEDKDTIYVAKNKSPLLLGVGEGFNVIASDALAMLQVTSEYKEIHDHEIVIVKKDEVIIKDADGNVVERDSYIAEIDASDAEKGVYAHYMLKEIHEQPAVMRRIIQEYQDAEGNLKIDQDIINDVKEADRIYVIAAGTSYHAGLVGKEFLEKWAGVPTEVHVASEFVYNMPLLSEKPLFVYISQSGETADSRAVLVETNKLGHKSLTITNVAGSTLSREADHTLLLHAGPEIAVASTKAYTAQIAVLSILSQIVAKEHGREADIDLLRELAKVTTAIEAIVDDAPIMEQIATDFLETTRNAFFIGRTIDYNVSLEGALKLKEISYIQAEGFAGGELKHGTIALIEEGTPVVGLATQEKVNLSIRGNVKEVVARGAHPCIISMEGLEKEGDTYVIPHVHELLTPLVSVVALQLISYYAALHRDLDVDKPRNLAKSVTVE

With `NC(=O)CI` [IA, iodoacetamide], in [1], the remaining activity at 100 µM was about 35%.
What is called IC50 is the point on the concentration scale where inhibition reaches its midpoint. The low end stands for greater potency, the high end for weaker potency. With `[C-]#[N+]C(c1ccc(F)cc1Cl)S(=O)(=O)c1ccc(C)cc1` (stereo not shown) [I16], the “CYP inhibition assay (Table S3)” value was “I16 inhibited all tested CYP isoforms (2C9, 2D6, 1A2, and 3A4) at nanomolar concentrations” at cytochrome P450 2C9 [2]; “I16 inhibited all tested CYP isoforms (2C9, 2D6, 1A2, and 3A4) at nanomolar concentrations” at cytochrome P450 3A4 [3]; “I16 inhibited all tested CYP isoforms (2C9, 2D6, 1A2, and 3A4) at nanomolar concentrations” on cytochrome P450 1A2 [4]; “I16 inhibited all tested CYP isoforms (2C9, 2D6, 1A2, and 3A4) at nanomolar concentrations” at cytochrome P450 2D6 [6]. For the same compound, the “GDH-coupled glutaminase assay; intact protein MS (+27.5 Da, truncated adduct); c” value in data set [5] is on record as “glutamate release rate decreased concentration-dependently by I16, corroborating its interaction with the active site cysteine”. Besides, the MIC against E. coli K12 [7] is over 50 µM; against S. aureus USA300 Lac, 1.56 µM (≈ 0.505 µg/mL); with A. baumannii 5075 it was over 100 µM; with A. baumannii ATCC 19606, over 100 µM; in the data set on B. subtilis 168, 12.5 µM (≈ 4.05 µg/mL); in the data set on E. coli K12 [8] it was over 100 µM. Besides, the MIC with E. coli UTI89 is over 100 µM; with E. faecalis V583, over 100 µM; in the data set with E. faecium DSM17050, over 100 µM; in the data set on K. pneumoniae DSM 30104, over 100 µM; against L. monocytogenes EGD-e, 1 µM (≈ 0.324 µg/mL); in the data set on P. aeruginosa PAO1, over 100 µM. Moreover, the MIC was 0.78 to 1.56 µM (≈ 0.253 to 0.505 µg/mL) in the data set on S. aureus NCTC 8325; 1.56 µM (≈ 0.505 µg/mL) against S. aureus USA300 LAC J2; 1 µM (≈ 0.324 µg/mL) in the data set on S. epidermidis RP62 A; 1.56 µM (≈ 0.505 µg/mL) with S. pneumoniae DSM 20567; over 100 µM in the data set with S. pyogenes ATCC 700294; over 100 µM in the data set on S. typhimurium LT2. Also, the 50% inhibitory concentration (IC50) was 60.8 ± 17 nM at cytochrome P450 1A2 [9], 144 ± 53 nM against cytochrome P450 2C9 [10], 59.3 ± 20 nM against cytochrome P450 2D6 [11] and 26.1 ± 8 nM on cytochrome P450 3A4 [12].
